Laboratory results published in patent publication US20080031868A1, “HUMAN LYSOZYME MEDICINE, ITS MANUFACTURING METHOD AND APPLICATION THEREOF” (priority 2005, published 2008).
Marks after values point to notes of the source that are not given here.

Tested on: Staphylococcus aureus MRSABAA-42
Experiment: Bronchus pneumonia mice infected by Staphylococcus aureus MRSA BAA-42, treated by atomization inspiring
Format: in vivo
Conditions: for accumulative survival number: 30 mice; for survival elevation rate (%): versus infected model group
[1] = 0.25 mg/ml atomization inspired
[2] = 0.25 mg/ml atomization inspired, 14 days
[3] = 0.5 mg/ml atomization inspired, 14 days
[4] = 2 mg/ml atomization inspired, 14 days

Substance: Human lysozyme: gene recombinant Human Lysozyme (HLZ), active unit 30000 u/mg, batch number 020110; given atomized / as aerosol
- average survival day (day, x ± s) [1]: 9.30 ± 4.08 days
- accumulative survival number [2]: 12
- survival rate (%) [2]: 40.0%
- Death number(piece) (0.25 mg/ml atomization inspired, day 1): 0 piece
- Death number(piece) (0.25 mg/ml atomization inspired, day 2): 0 piece
- Death number(piece) (0.25 mg/ml atomization inspired, day 3): 1 piece
- Death number(piece) (0.25 mg/ml atomization inspired, day 4): 2 piece
- Death number(piece) (0.25 mg/ml atomization inspired, day 5): 3 piece
- Death number(piece) (0.25 mg/ml atomization inspired, day 6): 3 piece
- Death number(piece) (0.25 mg/ml atomization inspired, day 7): 5 piece
- Death number(piece) (0.25 mg/ml atomization inspired, day 8): 4 piece
- Death number(piece) (0.25 mg/ml atomization inspired, day 9): 0 piece
- Death number(piece) (0.25 mg/ml atomization inspired, day 10): 0 piece
- Death number(piece) (0.25 mg/ml atomization inspired, day 11): 0 piece
- Death number(piece) (0.25 mg/ml atomization inspired, day 12): 0 piece
- Death number(piece) (0.25 mg/ml atomization inspired, day 13): 0 piece
- Death number(piece) (0.25 mg/ml atomization inspired, day 14): 0 piece
- survival elevation rate (%) [1]: 23.3%
- average survival day (day, x ± s) (0.5 mg/ml atomization inspired): 10.3 ± 3.77***^Δ day
- accumulative survival number [3]: 14
- survival rate (%) [3]: 46.7%
- Death number(piece) (0.5 mg/ml atomization inspired, day 1): 0 piece
- Death number(piece) (0.5 mg/ml atomization inspired, day 2): 0 piece
- Death number(piece) (0.5 mg/ml atomization inspired, day 3): 0 piece
- Death number(piece) (0.5 mg/ml atomization inspired, day 4): 2 piece
- Death number(piece) (0.5 mg/ml atomization inspired, day 5): 2 piece
- Death number(piece) (0.5 mg/ml atomization inspired, day 6): 3 piece
- Death number(piece) (0.5 mg/ml atomization inspired, day 8): 5 piece
- Death number(piece) (0.5 mg/ml atomization inspired, day 9): 0 piece
- Death number(piece) (0.5 mg/ml atomization inspired, day 10): 0 piece
- Death number(piece) (0.5 mg/ml atomization inspired, day 11): 0 piece
- Death number(piece) (0.5 mg/ml atomization inspired, day 12): 0 piece
- Death number(piece) (0.5 mg/ml atomization inspired, day 13): 0 piece
- Death number(piece) (0.5 mg/ml atomization inspired, day 14): 0 piece
- survival elevation rate (%) (0.5 mg/ml atomization inspired): 30.0%
- survival rate (1 mg/ml atomization inspired, 14 days): 56.7%
- average survival day (day, x ± s) (2 mg/ml atomization inspired): 12.93 ± 2.05***^ΔΔΔ day
- accumulative survival number [4]: 23
- survival rate (%) [4]: 76.7%
- Death number(piece) (2 mg/ml atomization inspired, day 1): 0 piece
- Death number(piece) (2 mg/ml atomization inspired, day 2): 0 piece
- Death number(piece) (2 mg/ml atomization inspired, day 3): 0 piece
- Death number(piece) (2 mg/ml atomization inspired, day 4): 0 piece
- Death number(piece) (2 mg/ml atomization inspired, day 5): 0 piece
- Death number(piece) (2 mg/ml atomization inspired, day 6): 0 piece
- Death number(piece) (2 mg/ml atomization inspired, day 7): 0 piece
- Death number(piece) (2 mg/ml atomization inspired, day 9): 2 piece
- Death number(piece) (2 mg/ml atomization inspired, day 10): 1 piece
- Death number(piece) (2 mg/ml atomization inspired, day 11): 2 piece
- Death number(piece) (2 mg/ml atomization inspired, day 12): 0 piece
- Death number(piece) (2 mg/ml atomization inspired, day 13): 0 piece
- Death number(piece) (2 mg/ml atomization inspired, day 14): 0 piece
- survival elevation rate (%) (2 mg/ml atomization inspired): 60.0%
- improving of survival rate and days over infected control group (2, 1, 0.5 mg/ml, p<0.05): 30-60%
- lung bacterial number (by the 14th day, basically negative): < 10 CFU/ml
- The 4th day (bacterial number, head incomplete) (dose 0.5): 5.0 ± 3.0
- The 5th day (bacterial number, head incomplete) (dose 0.5): 80.80 ± 14.28
- The 4th day (bacterial number, head incomplete) (dose 1): 5.5 ± 3.2
- The 5th day (bacterial number, head incomplete) (dose 1): 78.30 ± 17.86
